Drawing on patent EP1137645B1, “ALPHA-METHYLBENZYL-CONTAINING THIOUREA INHIBITORS OF HERPES VIRUSES CONTAINING A […] GROUP” (Wyeth, priority 1998, dated 2000), this text covers IC50 and inhibition for 20 compounds.

Structures are written as SMILES. ≈ marks a conversion by molar mass, not a printed value. Where two headings read alike, the source gives them in different places. Bounds are passed on as bounds.

Experiment [1] has as its system HCMV recombinant mutant virus whose genome contains the prokaryotic beta-glucuronidase gene. As to the kind of experiment: microbe, parasite or virus in culture. As to conditions: Human betaherpesvirus 5, Fibroblast, read-out: IC50 ug/ml HCMV, HCMV, human foreskin fibroblasts. The class given is cell-based, human cytomegalovirus. An excerpt: Microtiter plate assay. Ninety-six well plate cultures of human foreskin fibroblasts are infected in the presence of inhibitor compound with a HCMV recombinant mutant virus whose genome contains the prokaryotic beta-glucuronidase gene (Jefferson, R. A., S. M. Burgess, and D. Hirsh. 1986. Beta-glucuronidase from Escherichia coli as a gene fusion marker. Proc. Natl. Acad. Sci. USA 83:8447-8451) whose expression is controlled by a viral promoter. An example of such a virus is RV145 (Jones, T. R., V. P. Muzithras, and Y. Gluzman. 1991. Replacement mutagenesis of the human cytomegalovirus genome: US10 and US11 gene products are nonessential. J. Virol. 65:5860-5872). Since it is under the control of a viral promoter, beta-glucuronidase expression is an indirect indicator of growth and replication of HCMV in this assay. At 96 hours post-infection, the infected cell lysates are prepared (using 50mM sodium phosphate [pH7.0] containing 0.1% Triton X-100 and 0.1% sarkosyl) and assayed for beta-glucuronidase activity using a substrate for the enzyme which when cleaved yields either a product which can be measured colorimetrically in a spectrophotometer or fluorescently in a microfluorimeter. Examples of such substrates are p-nitrophenyl-beta-D-glucuronide and methylumbelliferylglucuronide, respectively. The presence of an antiviral compound is indicated by the reduced expression of the HCMV genome resident beta-glucuronidase gene, compared to the absence of inhibitor. […] Data from this assay generated using varying amounts of inhibitor compound is also used to estimate the IC50 of an inhibitor compound.

Another experiment concerns HSV- I. As to the kind of experiment: HSV antiviral (ELISA) assay. The conditions noted are these: read-out: IC50 (ug/ml) HSV. The class given is cell-based. As to the method: Vero cells (ATCC #CCL-81) are plated on 96-well tissue culture plates at 3.5x10^4 cells per 100µl tissue culture DMEM (Dulbecco's modified Eagle media) supplemented with 2% fetal bovine serum (FBS) in each well. After overnight incubation @ 37°C (in 5% CO2) and 30 minutes prior to infection with HSV- I (multiplicity of infection equal to 0.006), cells are either untreated, or treated with test compound (multiple concentrations) or reference standard drug control. After approximately 24 hours post-infection incubation @ 37°C (in 5% CO2), cells are fixed for ELISA assay. The primary antibody is murine anti-HSV glycoprotein D monoclonal primary antibody and the secondary antibody is goat anti-mouse IgG linked to β-galactosidase. Thus the extent of viral replication is determined by assessing β-galactosidase activity by quantifying the generation of the 4-methyl umbelliferone fluorescent cleavage product after addition of the methyl umbelliferyl-β-D-galactoside (Sigma #M1633) substrate on a microfluorimeter (365nm for excitation and 450nm for emission). Antiviral activity (IC50) of the test compound is determined by comparing the flourescence obtained in absence of compound to that obtained in the presence of compound.
For orientation: ELISA stands for enzyme-linked immunosorbent assay.

For another experiment, the system named is VZV strain Ellen. Briefly: VZV antiviral (ELISA) assay. The class given is cell-based. The conditions noted are these: Human alphaherpesvirus 3, HFF; for inhibition at 10 µg/mL: read-out: % inhibition 10 ug/ml VZV. The method, then:
For the generation of stock VZV to be used in the assay, VZV strain Ellen (ATCC #VR-1367) is used to infect human foreskin fibroblast (HFF) cells at low multiplicity (less than 0.1) and incubated overnight at 37°C in 5% CO2. After the overnight incubation, the mixture of uninfected and VZV-infected HFF infected cells are then harvested and added to each well of 96-well plates (3.5x10^4 cells in 100 µl DMEM supplemented with 2% FBS) which contain test compound or the reference standard drug control (in 100µl DMEM supplemented with 2% FBS per well). These cells are incubated for three days at 37°C in 5% CO2, then fixed for ELISA assay. The primary antibody is murine anti-VZV glycoprotein II monoclonal antibody (Applied Biosystems, Inc. #13-145-100) and the secondary antibody is goat anti-mouse IgG linked to β-galactosidase. Thus the extent of viral replication is determined by assessing β-galactosidase activity by quantifying the generation of the 4-methyl umbelliferone fluorescent cleavage product after addition of the methyl umbelliferyl-β-D-galactoside (Sigma #M1633) substrate on a microfluorimeter (365nm for excitation and 450nm for emission). Antiviral activity (IC50) of the test compound is determined by comparing the flourescence obtained in absence of compound to that obtained in the presence of compound.

Turning to `COc1cc(OC)c(NC(=S)Nc2ccc(NC(=O)c3ccccc3C)cc2)cc1Cl` [Example 114, N-{4-[3-(5-Chloro-2,4-dimethoxy-phenyl)-thioureido]-phenyl}-2-methyl-benzamide], the IC50 in experiment [1] is 5 µg/mL (≈ 11 µM); with HSV- I (HSV- I, Vero cells, ELISA), 0.3 µg/mL (≈ 0.658 µM); in the experiment with VZV strain Ellen (read-out: IC50 (ug/ml) VZV), above 10 µg/mL. The inhibition at 10 µg/mL in the experiment on VZV strain Ellen came out at 17%.
In the case of `COc1cc(OC)c(NC(=S)Nc2ccc(NC(=O)c3ccccc3OC(C)=O)cc2)cc1Cl` [Example 115, Acetic acid 2-{4-[3-(5-chloro-2,4-dimethoxy-phenyl)-thioureido]-phenyl-carbamoyl}-phenyl ester], the IC50 in experiment [1] is 8 µg/mL (≈ 16 µM); in the experiment on HSV- I (HSV- I, Vero cells, ELISA) it was 4 µg/mL (≈ 8 µM); in the experiment with VZV strain Ellen (read-out: IC50 (ug/ml) VZV) it was 4 µg/mL (≈ 8 µM). Also, in the experiment with VZV strain Ellen, the inhibition at 10 µg/mL was found to be 98%.
`COc1cc(OC)c(NC(=S)Nc2ccc(NC(=O)c3ccc(F)cc3)cc2)cc1Cl` [Example 116, N-{4-[3-(5-Chloro-2,4-dimethoxy-phenyl)-thioureido]-phenyl}-4-fluoro-benzamide]: the IC50 in experiment [1] is 3 µg/mL (≈ 6.52 µM); in the experiment with HSV- I (Vero) it was 2 µg/mL (≈ 4.35 µM); in the experiment on VZV strain Ellen (read-out: IC50 (ug/ml) VZV) it was above 10 µg/mL. In the experiment with VZV strain Ellen, the inhibition at 10 µg/mL came out at 0%.
With `COc1cc(OC)c(NC(=S)Nc2ccc(NC(=O)c3cccc(F)c3)cc2)cc1Cl` [Example 117, N-{4-[3-(5-Chloro-2,4-dimethoxy-phenyl)-thioureido]-phenyl}-3-fluoro-benzamide], the IC50 in experiment [1] was 3 µg/mL (≈ 6.52 µM); in the experiment on HSV- I (HSV- I, Vero cells, ELISA), 0.3 µg/mL (≈ 0.652 µM); with VZV strain Ellen (read-out: IC50 (ug/ml) VZV) it was above 10 µg/mL. In the experiment with VZV strain Ellen, the inhibition at 10 µg/mL stood at 15%.
On to `COc1cc(OC)c(NC(=S)Nc2ccc(NC(=O)c3ccccc3F)cc2)cc1Cl` [Example 118, N-{4-[3-(5-Chloro-2,4-dimethoxy-phenyl)-thioureido]-phenyl}-2-fluoro-benzamide], for which the IC50 in experiment [1] is 3 µg/mL (≈ 6.52 µM); with HSV- I (Vero), 0.15 µg/mL (≈ 0.326 µM); with VZV strain Ellen (read-out: IC50 (ug/ml) VZV, VZV strain Ellen, HFF cells, ELISA) it was above 10 µg/mL.
`COc1cc(OC)c(NC(=S)Nc2ccc(NC(=O)c3ccccc3OC)cc2)cc1Cl` [Example 119, N-{4-[3-(5-Chloro-2,4-dimethoxy-phenyl)-thioureido]-phenyl}-2-methoxy-benzamide]: the IC50 is above 10 µg/mL in experiment [1]; 0.5 µg/mL (≈ 1.06 µM) in the experiment with HSV- I (HSV- I, Vero cells, ELISA); above 10 µg/mL in the experiment on VZV strain Ellen (read-out: IC50 (ug/ml) VZV). Also, the inhibition at 10 µg/mL in the experiment on VZV strain Ellen stood at 1%.
For `COc1cccc(C(=O)Nc2ccc(NC(=S)Nc3cc(Cl)c(OC)cc3OC)cc2)c1` [Example 120, N-{4-[3-(5-Chloro-2,4-dimethoxy-phenyl)-thioureido]-phenyl}-3-methoxy-benzamide], the IC50 in experiment [1] was 5 µg/mL (≈ 10.6 µM); with HSV- I (HSV- I, Vero cells, ELISA), 0.8 µg/mL (≈ 1.7 µM); with VZV strain Ellen (read-out: IC50 (ug/ml) VZV), above 10 µg/mL. In addition, the inhibition at 10 µg/mL in the experiment on VZV strain Ellen stood at 25%.
With `COc1ccc(C(=O)Nc2ccc(NC(=S)Nc3cc(Cl)c(OC)cc3OC)cc2)cc1` [Example 121, N-{4-[3-(5-Chloro-2,4-dimethoxy-phenyl)-thioureido]-phenyl}-4-methoxy-benzamide], the IC50 in experiment [1] was 6 µg/mL (≈ 12.7 µM); with HSV- I (HSV- I, Vero cells, ELISA) it was 0.3 µg/mL (≈ 0.636 µM); in the experiment on VZV strain Ellen (read-out: IC50 (ug/ml) VZV), above 10 µg/mL. Besides, the inhibition at 10 µg/mL with VZV strain Ellen is 0%.
Regarding `COc1cc(OC)c(NC(=S)Nc2ccc(NC(=O)c3ccccc3)cc2)cc1Cl` [Example 122, N-{4-[3-(5-Chloro-2,4-dimethoxy-phenyl)-thioureido]-phenyl}-benzamide], the IC50 in experiment [1] is 4 µg/mL (≈ 9.05 µM); in the experiment on HSV- I (HSV- I, Vero cells, ELISA) it was 0.3 µg/mL (≈ 0.679 µM); in the experiment on VZV strain Ellen (read-out: IC50 (ug/ml) VZV), above 10 µg/mL. Further, in the experiment with VZV strain Ellen, the inhibition at 10 µg/mL was determined as 13%.
As to `COc1c(Cl)cc(NC(=S)Nc2ccc(NC(=O)c3ccc(F)cc3)cc2)cc1Cl` [Example 133, N-{4-[3-(3,5-Dichloro-4-methoxy-phenyl)-thioureido]-phenyl}-4-fluoro-benzamide], the IC50 is 0.6 µg/mL (≈ 1.29 µM) in experiment [1]; 7 µg/mL (≈ 15.1 µM) in the experiment with HSV- I (HSV- I, Vero cells, ELISA); above 10 µg/mL with VZV strain Ellen (read-out: IC50 (ug/ml) VZV). Further, in the experiment with VZV strain Ellen, the inhibition at 10 µg/mL came out at 36%.
For `COc1cc(OC)c(NC(=S)Nc2ccc(NC(=O)c3cccc(NC(C)=O)c3)cc2)cc1Cl` [Example 134, 3-Acetylamino-N-{4-[3-(5-chloro-2,4-dimethoxy-phenyl)-thioureido]-phenyl}-benzamide], the IC50 in experiment [1] was 4 µg/mL (≈ 8.02 µM); in the experiment with HSV- I (HSV- I, Vero cells, ELISA), above 10 µg/mL; with VZV strain Ellen (read-out: IC50 (ug/ml) VZV), above 10 µg/mL. In addition, in the experiment with VZV strain Ellen, the inhibition at 10 µg/mL is 50%.
Take `COc1cc(OC)c(NC(=S)Nc2ccc(NC(=O)c3cccc([N+](=O)[O-])c3)cc2)cc1Cl` [Example 135, N-{4-[3-(5-Chloro-2,4-dimethoxy-phenyl)-thioureido]-phenyl}-3-nitro-benzamide]: the IC50 in experiment [1] is 5 µg/mL (≈ 10.3 µM); in the experiment on HSV- I (HSV- I, Vero cells, ELISA) it was 1.5 µg/mL (≈ 3.08 µM); in the experiment with VZV strain Ellen (read-out: IC50 (ug/ml) VZV), above 10 µg/mL. The inhibition at 10 µg/mL in the experiment on VZV strain Ellen was found to be 0%.
In the case of `COc1cc(OC)c(NC(=S)Nc2ccc(NC(=O)c3cccc(N(C)C)c3)cc2)cc1Cl` [Example 136, N-{4-[3-(5-Chloro-2,4-dimethoxy-phenyl)-thioureido]-phenyl}-3-dimethylamino-benzamide], the IC50 in experiment [1] was 10 µg/mL (≈ 20.6 µM); with HSV- I (HSV- I, Vero cells, ELISA), 1 µg/mL (≈ 2.06 µM); in the experiment with VZV strain Ellen (read-out: IC50 (ug/ml) VZV) it was above 10 µg/mL. Moreover, the inhibition at 10 µg/mL with VZV strain Ellen was 40%.
For the compound `COc1ccccc1C(=O)Nc1ccc(NC(=S)NC(C)c2ccc(F)cc2)cc1` (centres unmarked) [Example 752, N-(4-{3-(1-(4-Fluoro-phenyl)-ethyl]-thioureido}-phenyl)-2-methoxy-benzamide], the IC50 in experiment [1] is above 0.5 µg/mL; with HSV- I (Vero), above 10 µg/mL.
Regarding `CC(NC(=S)Nc1ccc(NC(=O)c2ccc(N(C)C)cc2)cc1)c1ccc(F)cc1` (centres unmarked) [Example 765, 4-Dimethylamino-N-(4-{3-[1-(4-fluoro-phenyl)-ethyl]-thioureido}-phenyl)-benzamide], the IC50 was determined as 2.3 µg/mL (≈ 5.27 µM) in experiment [1] and 10 µg/mL (≈ 22.9 µM) in the experiment with HSV- I (Vero).
With `CCC(NC(=S)Nc1ccc(NC(=O)c2ccccc2F)cc1)c1ccc(F)cc1` (centres unmarked) [Example 771, 2-Fluoro-N-(4-{3-[1-(4-fluoro-phenyl)-propyl]-thioureido}-phenyl)-benzamide], the figures for the IC50 (in experiment [1]; in the experiment with HSV- I (Vero)) were 0.4 µg/mL (≈ 0.94 µM) and above 10 µg/mL, respectively.
The like results for `O=C(Nc1ccc(NC(=S)NC(c2ccccc2)c2ccc(F)cc2)cc1)c1ccccc1F` (centres unmarked) [Example 772, 2-Fluoro-N-(4-{3-[(4-fluoro-phenyl)-phenyl-methyl]-thioureido}-phenyl)-benzamide] were, in that order, 0.35 µg/mL (≈ 0.739 µM) and above 10 µg/mL.
Consider `O=C(Nc1ccc(NC(=S)Nc2cccc(Cl)c2Cl)cc1)c1ccccc1F` [Example 927, N-{4-[3-(2,3-Dichloro-phenyl)-thioureido]-phenyl}-2-fluoro-benzamide], for which the results for the IC50 (in experiment [1]; in the experiment with HSV- I (Vero)) were 2 µg/mL (≈ 4.6 µM) and 5 µg/mL (≈ 11.5 µM), respectively.
The like results for `O=C(Nc1ccc(NC(=S)Nc2cccc(Cl)c2)cc1)c1ccccc1F` [Example 944, N-{4-[3-(3-Chloro-phenyl)-thioureido]-phenyl}-2-fluoro-benzamide] were, in that order, 3 µg/mL (≈ 7.5 µM) and above 10 µg/mL.
For the compound `O=C(Nc1ccc(NC(=S)Nc2ccc(Cl)cc2)cc1)c1ccccc1F` [Example 946, N-{4-[3-(4-Chloro-phenyl)-thioureido]-phenyl}-2-fluoro-benzamide], the IC50 (in experiment [1]; in the experiment with HSV- I (Vero)) was above 10 µg/mL each time.
